# Tests used:
# 786-0 = assay: Antiproliferative activity against human 786-0 cells assessed as cell growth inhibition incubated for 72 hrs by MTT assay; format: functional
# COLO 205 = assay: Antiproliferative activity against human COLO 205 cells assessed as cell growth inhibition incubated for 72 hrs by MTT assay; format: functional
# SF-295 = assay: Antiproliferative activity against human SF-295 cells assessed as cell growth inhibition incubated for 72 hrs by MTT assay; format: functional
# EKVX = assay: Antiproliferative activity against human EKVX cells assessed as cell growth inhibition incubated for 72 hrs by MTT assay; format: functional
# NCI-H226 = assay: Antiproliferative activity against human NCI-H226 cells assessed as cell growth inhibition incubated for 72 hrs by MTT assay; format: functional
# HT-29 = assay: Antiproliferative activity against human HT-29 cells assessed as cell growth inhibition incubated for 72 hrs by MTT assay; format: functional
# OVCAR-8 = assay: Antiproliferative activity against human OVCAR-8 cells assessed as cell growth inhibition incubated for 72 hrs by MTT assay; format: functional
# CCRF-CEM = assay: Antiproliferative activity against human CCRF-CEM cells assessed as cell growth inhibition incubated for 72 hrs by MTT assay; format: functional
# UO-31 = assay: Antiproliferative activity against human UO-31 cells assessed as cell growth inhibition incubated for 72 hrs by MTT assay; format: functional
# MDA-MB-231 = assay: Antiproliferative activity against human MDA-MB-231 cells assessed as cell growth inhibition incubated for 72 hrs by MTT assay; format: functional
# MOLT-4 = assay: Antiproliferative activity against human MOLT-4 cells assessed as cell growth inhibition incubated for 72 hrs by MTT assay; format: functional
# RPMI-8226 = assay: Antiproliferative activity against human RPMI-8226 cells assessed as cell growth inhibition incubated for 72 hrs by MTT assay; format: functional
# IGROV-1 = assay: Antiproliferative activity against human IGROV-1 cells assessed as cell growth inhibition incubated for 72 hrs by MTT assay; format: functional
# BT-549 = assay: Antiproliferative activity against human BT-549 cells assessed as cell growth inhibition incubated for 72 hrs by MTT assay; format: functional
# NCI/ADR-RES = assay: Antiproliferative activity against human NCI-ADR-RES cells assessed as cell growth inhibition incubated for 72 hrs by MTT assay; format: functional
# ACHN = assay: Antiproliferative activity against human ACHN cells assessed as cell growth inhibition incubated for 72 hrs by MTT assay; format: functional
# SK-MEL-5 = assay: Antiproliferative activity against human SK-MEL-5 cells assessed as cell growth inhibition incubated for 72 hrs by MTT assay; format: functional
# [1] = Antiproliferative activity against human HBL1 cells assessed as proliferating cells at 1 uM incubated for 72 hrs by MTT assay relative to control; format: functional
# U-251 = assay: Antiproliferative activity against human U-251 cells assessed as cell growth inhibition incubated for 72 hrs by MTT assay; format: functional
# SK-OV-3 = assay: Antiproliferative activity against human SK-OV-3 cells assessed as cell growth inhibition incubated for 72 hrs by MTT assay; format: functional
# [2] = Antiproliferative activity against human MINO cells assessed as proliferating cells at 1 uM incubated for 72 hrs by MTT assay relative to control; format: functional
# DU-145 = assay: Antiproliferative activity against human DU-145 cells assessed as cell growth inhibition incubated for 72 hrs by MTT assay; format: functional
# Hs-578T = assay: Antiproliferative activity against human Hs-578T cells assessed as cell growth inhibition incubated for 72 hrs by MTT assay; format: functional
# OVCAR-5 = assay: Antiproliferative activity against human OVCAR-5 cells assessed as cell growth inhibition incubated for 72 hrs by MTT assay; format: functional
# T47D = assay: Antiproliferative activity against human T47D cells assessed as cell growth inhibition incubated for 72 hrs by MTT assay; format: functional
# NCI-H322M = assay: Antiproliferative activity against human NCI-H322M cells assessed as cell growth inhibition incubated for 72 hrs by MTT assay; format: functional
# MDA-MB-435 = assay: Antiproliferative activity against human MDA-MB-435 cells assessed as cell growth inhibition incubated for 72 hrs by MTT assay; format: functional
# NCI-H460 = assay: Antiproliferative activity against human NCI-H460 cells assessed as cell growth inhibition incubated for 72 hrs by MTT assay; format: functional
# Malme-3M = assay: Antiproliferative activity against human Malme-3M cells assessed as cell growth inhibition incubated for 72 hrs by MTT assay; format: functional
# UACC-62 = assay: Antiproliferative activity against human UACC-62 cells assessed as cell growth inhibition incubated for 72 hrs by MTT assay; format: functional
# OVCAR-4 = assay: Antiproliferative activity against human OVCAR-4 cells assessed as cell growth inhibition incubated for 72 hrs by MTT assay; format: functional
# NCI-H23 = assay: Antiproliferative activity against human NCI-H23 cells assessed as cell growth inhibition incubated for 72 hrs by MTT assay; format: functional
# SK-MEL-2 = assay: Antiproliferative activity against human SK-MEL-2 cells assessed as cell growth inhibition incubated for 72 hrs by MTT assay; format: functional
# SNB-19 = assay: Antiproliferative activity against human SNB-19 cells assessed as cell growth inhibition incubated for 72 hrs by MTT assay; format: functional
# HOP-62 = assay: Antiproliferative activity against human HOP-62 cells assessed as cell growth inhibition incubated for 72 hrs by MTT assay; format: functional
# SU-DHL10 [3] = assay: Antiproliferative activity against human SU-DHL-10 cells assessed as proliferating cells at 1 uM incubated for 72 hrs by MTT assay relative to control; format: functional
# RXF 393 = assay: Antiproliferative activity against human RXF 393 cells assessed as cell growth inhibition incubated for 72 hrs by MTT assay; format: functional
# PC-3 = assay: Antiproliferative activity against human PC-3 cells assessed as cell growth inhibition incubated for 72 hrs by MTT assay; format: functional
# SNB-75 = assay: Antiproliferative activity against human SNB-75 cells assessed as cell growth inhibition incubated for 72 hrs by MTT assay; format: functional
# VL51 [4] = assay: Antiproliferative activity against human VL51 cells assessed as proliferating cells at 1 uM incubated for 72 hrs by MTT assay relative to control; format: functional
# HCT-15 = assay: Antiproliferative activity against human HCT-15 cells assessed as cell growth inhibition incubated for 72 hrs by MTT assay; format: functional
# SU-DHL10 [5] = assay: Antiproliferative activity against human SU-DHL-10 cells assessed as inhibition of cell proliferation incubated for 72 hrs by MTT assay; format: functional, cell-based; conditions: SU-DHL10, 72 h
# SF-268 = assay: Antiproliferative activity against human SF-268 cells assessed as cell growth inhibition incubated for 72 hrs by MTT assay; format: functional
# HCT-116 = assay: Antiproliferative activity against human HCT-116 cells assessed as cell growth inhibition incubated for 72 hrs by MTT assay; format: functional
# KM12 = assay: Antiproliferative activity against human KM12 cells assessed as cell growth inhibition incubated for 72 hrs by MTT assay; format: functional
# HOP-92 = assay: Antiproliferative activity against human HOP-92 cells assessed as cell growth inhibition incubated for 72 hrs by MTT assay; format: functional
# VL51 [6] = assay: Antiproliferative activity against human VL51 cells assessed as inhibition of cell proliferation incubated for 72 hrs by MTT assay; format: functional, cell-based; conditions: VL51, 72 h
structure (smiles),measurement,setting,value
COc1ccc(Cn2cc3c(c2-c2cc(OC)c(OC)c(OC)c2)CCc2c(CN4CCCC4)noc2-3)cc1,GI50,786-0,1000 nM
same,GI50,COLO 205,940 nM
same,GI50,SF-295,460 nM
same,GI50,EKVX,2110 nM
same,GI50,NCI-H226,2070 nM
same,GI50,HT-29,400 nM
same,GI50,OVCAR-8,3270 nM
same,GI50,CCRF-CEM,730 nM
same,GI50,UO-31,1160 nM
same,GI50,MDA-MB-231,3050 nM
same,GI50,MOLT-4,1470 nM
same,GI50,RPMI-8226,1270 nM
same,GI50,IGROV-1,890 nM
same,GI50,BT-549,2470 nM
same,GI50,NCI/ADR-RES,550 nM
same,GI50,ACHN,630 nM
same,GI50,SK-MEL-5,1020 nM
same,Activity,[1],30.6%
same,GI50,U-251,540 nM
same,GI50,SK-OV-3,6700 nM
same,Activity,[2],8.7%
same,GI50,DU-145,4000 nM
same,GI50,Hs-578T,1800 nM
same,GI50,OVCAR-5,3200 nM
same,GI50,T47D,2650 nM
same,GI50,NCI-H322M,5550 nM
same,GI50,MDA-MB-435,240 nM
same,GI50,NCI-H460,570 nM
same,GI50,Malme-3M,500 nM
same,GI50,UACC-62,550 nM
same,GI50,OVCAR-4,21400 nM
same,GI50,NCI-H23,2800 nM
same,GI50,SK-MEL-2,13200 nM
same,GI50,SNB-19,780 nM
same,GI50,HOP-62,1000 nM
same,Activity,SU-DHL10 [3],0.3%
same,GI50,RXF 393,890 nM
same,GI50,PC-3,640 nM
same,GI50,SNB-75,670 nM
same,Activity,VL51 [4],57%
same,GI50,HCT-15,480 nM
same,IC50,SU-DHL10 [5],700 nM
same,GI50,SF-268,3150 nM
same,GI50,HCT-116,470 nM
same,GI50,KM12,12600 nM
same,GI50,HOP-92,1350 nM
same,IC50,VL51 [6],150 nM
CCOC(=O)c1noc2c1CCc1c-2cn(Cc2ccc(OC)cc2)c1-c1cc(OC)c(OC)c(OC)c1,GI50,786-0,3650 nM
same,GI50,COLO 205,1770 nM
same,GI50,SF-295,3020 nM
same,GI50,EKVX,3920 nM
same,GI50,NCI-H226,> 100000 nM
same,GI50,HT-29,850 nM
same,GI50,OVCAR-8,3040 nM
same,GI50,CCRF-CEM,1040 nM
same,GI50,UO-31,3440 nM
same,GI50,MDA-MB-231,2700 nM
same,GI50,MOLT-4,2700 nM
same,GI50,RPMI-8226,2850 nM
same,GI50,IGROV-1,2450 nM
same,GI50,BT-549,1470 nM
same,GI50,NCI/ADR-RES,3520 nM
same,GI50,ACHN,3510 nM
same,GI50,SK-MEL-5,490 nM
same,Activity,[1],70.1%
same,GI50,U-251,540 nM
same,GI50,SK-OV-3,5230 nM
same,Activity,[2],41.3%
same,GI50,DU-145,2320 nM
same,GI50,Hs-578T,2990 nM
same,GI50,OVCAR-5,4720 nM
same,GI50,T47D,> 100000 nM
same,GI50,NCI-H322M,5460 nM
same,GI50,MDA-MB-435,570 nM
same,GI50,NCI-H460,1000 nM
same,GI50,UACC-62,2740 nM
same,GI50,OVCAR-4,20500 nM
same,GI50,NCI-H23,3040 nM
same,GI50,SK-MEL-2,4290 nM
same,GI50,SNB-19,670 nM
same,GI50,HOP-62,3000 nM
same,Activity,SU-DHL10 [3],59%
same,GI50,RXF 393,2170 nM
same,GI50,PC-3,2900 nM
same,GI50,SNB-75,3650 nM
same,Activity,VL51 [4],79.7%
same,GI50,HCT-15,500 nM
same,IC50,SU-DHL10 [5],2000 nM
same,GI50,SF-268,8070 nM
same,GI50,HCT-116,400 nM
same,GI50,KM12,910 nM
same,GI50,HOP-92,2720 nM
same,IC50,VL51 [6],1800 nM

# From ChEMBL document CHEMBL5352447, “Development of [1,2]oxazoloisoindoles tubulin polymerization inhibitors: Further chemical modifications and potential therapeutic effects against lymphomas” (Eur J Med Chem, 2022)
